Source: ChEMBL document CHEMBL1255481, “The M230L nonnucleoside reverse transcriptase inhibitor resistance mutation in HIV-1 reverse transcriptase impairs enzymatic function and viral replicative capacity” (Antimicrob Agents Chemother, 2010)
pEC50, pIC50: −log10 of the molar value.

Tests used:
[1] = tested on: Human immunodeficiency virus 1; test: Antiviral activity against HIV 1 subtype B harboring wild type reverse transcriptase infected in human TZM-bl cells assessed as inhibition of viral growth by luciferase reporter gene assay; assay type: functional, organism-based; details: Human immunodeficiency virus 1, subtype B
[2] = tested on: Human immunodeficiency virus 1; test: Antiviral activity against HIV 1 subtype B harboring reverse transcriptase M230L mutant infected in human TZM-bl cells assessed as inhibition of viral growth by luciferase reporter gene assay; assay type: functional, organism-based; details: Human immunodeficiency virus 1, subtype B
[3] = target: T1, Human immunodeficiency virus type 1 reverse transcriptase (Human immunodeficiency virus 1, UniProt Q72547); test: Inhibition of RNA-dependent DNA polymerase activity of wild type HIV1 subtype B reverse transcriptase by filter-based filtration assay
[4] = target: T2, Human immunodeficiency virus type 1 reverse transcriptase (Human immunodeficiency virus 1, UniProt Q72547, M230L); test: Inhibition of RNA-dependent DNA polymerase activity of HIV1 subtype B reverse transcriptase M230L mutant by filter-based filtration assay
[5] = tested on: Human immunodeficiency virus 1; test: Selectivity ratio of IC50 for RNA-dependent DNA polymerase activity of HIV1 subtype B reverse transcriptase M230L mutant to IC50 for RNA-dependent DNA polymerase activity of wild type HIV1 subtype B reverse transcriptase
[6] = target: T1, Human immunodeficiency virus type 1 reverse transcriptase; test: Inhibition of DNA-dependent DNA polymerase activity of wild type HIV1 subtype B reverse transcriptase by gel-based primer extension assay
[7] = target: T2, Human immunodeficiency virus type 1 reverse transcriptase; test: Inhibition of DNA-dependent DNA polymerase activity of HIV1 subtype B reverse transcriptase M230L mutant by gel-based primer extension assay
[8] = tested on: Human immunodeficiency virus 1; test: Selectivity ratio of IC50 for DNA-dependent DNA polymerase activity of HIV1 subtype B reverse transcriptase M230L mutant to IC50 for DNA-dependent DNA polymerase activity of wild type HIV1 subtype B reverse transcriptase
[9] = tested on: Human immunodeficiency virus 1; test: Selectivity ratio of EC50 for antiviral activity against HIV 1 subtype B harboring reverse transcriptase M230L mutant to EC50 for antiviral activity against HIV 1 subtype B harboring wild type reverse transcriptase; assay type: functional

SMILES | pEC50 [1] | pEC50 [2] | pIC50 [3] | pIC50 [4] | Selectivity ratio [5] | pIC50 [6] | pIC50 [7] | Selectivity ratio [8] | Selectivity ratio [9]
O=C1Nc2ccc(Cl)cc2[C@@](C#CC2CC2)(C(F)(F)F)O1 [EFAVIRENZ] | 8.45 | 7.19 |  |  |  |  |  |  | 
Cc1cc(C)c(Nc2ccnc(Nc3ccc(C#N)cc3)n2)c(C)c1 [DAPIVIRINE] | 9.04 | 8.24 | 7.72 | 6.76 | 9.1 | 6.88 | 5.89 | 9.9 | 6.4
Cc1cc(C#N)cc(C)c1Oc1nc(Nc2ccc(C#N)cc2)nc(N)c1Br [ETRAVIRINE] | 8.90 | 8.14 |  |  |  |  |  |  | 
Cc1ccnc2c1NC(=O)c1cccnc1N2C1CC1 [NEVIRAPINE] | 6.79 | 5.57 |  |  |  |  |  |  | 
